Where a name gives a salt, the structure may show the parent alone. Read-outs that look alike come from different tables or passages of the source.
Assays:
[1] = molecular target: T1, SARS-CoV-2 PLpro (nsp3 1564–1878) (Severe acute respiratory syndrome coronavirus 2, UniProt P0DTD1); test: biochemical; design: FRET-quenched peptide (Pro3) cleavage by PLpro, 10 min pre-incubation, slope over 20 min, normalised to no-compound control; conditions: high concentration screen
[2] = molecular target: T1, SARS-CoV-2 PLpro (nsp3 1564–1878); test: biochemical; design: FRET-quenched peptide (Pro3) cleavage by PLpro, 10 min pre-incubation, slope over 20 min, normalised to no-compound control; conditions: low concentration screen
[3] = read-out: % of control remaining, Well no.=271
[4] = read-out: % of control remaining, Well no.=2171
[5] = read-out: % of control remaining, Well no.=6566
[6] = Well no.=800, read-out: % of control remaining
[7] = Well no.=646, read-out: % of control remaining
[8] = Well no.=1471, read-out: % of control remaining
[9] = Well no.=7361, read-out: % of control remaining
[10] = Well no.=4901, read-out: % of control remaining
[11] = Well no.=4497, read-out: % of control remaining
[12] = Well no.=8413, read-out: % of control remaining
[13] = Well no.=436, read-out: % of control remaining
[14] = Well no.=1047, read-out: % of control remaining
[15] = Well no.=700, read-out: % of control remaining
[16] = Well no.=1605, read-out: % of control remaining
[17] = Well no.=6388, read-out: % of control remaining
[18] = Well no.=8506, read-out: % of control remaining
[19] = Well no.=4688, read-out: % of control remaining
[20] = Well no.=4809, read-out: % of control remaining
[21] = Well no.=8488, read-out: % of control remaining
[22] = Well no.=6734, read-out: % of control remaining
[23] = Well no.=4300, read-out: % of control remaining
[24] = Well no.=3183, read-out: % of control remaining
[25] = Well no.=7741, read-out: % of control remaining
[26] = Well no.=1523, read-out: % of control remaining
[27] = Well no.=1810, read-out: % of control remaining
[28] = Well no.=3398, read-out: % of control remaining
[29] = Well no.=3341, read-out: % of control remaining
[30] = Well no.=5050, read-out: % of control remaining
[31] = Well no.=6558, read-out: % of control remaining
[32] = Well no.=644, read-out: % of control remaining
[33] = Well no.=581, read-out: % of control remaining
[34] = Well no.=6447, read-out: % of control remaining
[35] = Well no.=8538, read-out: % of control remaining
[36] = Well no.=5342, read-out: % of control remaining
[37] = Well no.=4646, read-out: % of control remaining
[38] = Well no.=7307, read-out: % of control remaining
[39] = Well no.=5877, read-out: % of control remaining

C[C@H]1C[C@H]2[C@@H]3CCC4=CC(=O)C=C[C@]4(C)[C@@]3(F)[C@@H](O)C[C@]2(C)[C@@]1(O)C(=O)CO [Betamethasone]
remaining activity at 3.75 µM [1, 3]: 95.6% | remaining activity at 3.75 µM [1, 4]: 93.7% | remaining activity at 3.75 µM [1, 5]: 95.4% | remaining activity at 1.25 µM [2, 3]: 97.7% | remaining activity at 1.25 µM [2, 4]: 93.5% | remaining activity at 1.25 µM [2, 5]: 94.8%

Cn1cnc2c(NCc3ccccc3)nc(NCCO)nc21 [Olomoucine]
remaining activity at 3.75 µM [1, 6]: 98.3% | remaining activity at 1.25 µM [2, 6]: 96.5%

CC[C@H]1CN2CCc3cc(OC)c(OC)cc3[C@@H]2C[C@@H]1C[C@H]1NCCc2cc(OC)c(OC)cc21 [Emetine dihydrochloride hydrate]
remaining activity at 3.75 µM [1, 7]: 103% | remaining activity at 1.25 µM [2, 7]: 104%

N[C@@H](Cc1c[nH]c2ccccc12)C(=O)O [L-Tryptophan]
remaining activity at 3.75 µM [1, 8]: 98.2% | remaining activity at 3.75 µM [1, 9]: 100% | remaining activity at 1.25 µM [2, 8]: 96.7% | remaining activity at 1.25 µM [2, 9]: 100%

Cc1cccc(-c2[nH]c(C(C)(C)C)nc2-c2ccc3nccnc3c2)n1 [SB 525334]
remaining activity at 3.75 µM [1, 10]: 99.1% | remaining activity at 1.25 µM [2, 10]: 99.5%

CCCCCCCC/C=C\CCCCCCCC(=O)OC[C@@H](O)COP(=O)(O)O [Lysophosphatidic acid]
remaining activity at 3.75 µM [1, 11]: 105% | remaining activity at 1.25 µM [2, 11]: 97.9%

CCCN(CCC)C(=O)C1=Cc2ccc(-c3ccc(C(=O)N4CCCC4)cc3)cc2N=C(N)C1 [Motolimod]
remaining activity at 3.75 µM [1, 12]: 99% | remaining activity at 1.25 µM [2, 12]: 103%

CC(C)N(CCC(C(N)=O)(c1ccccc1)c1ccccn1)C(C)C (centres unmarked) [Disopyramide phosphate]
remaining activity at 3.75 µM [1, 13]: 98.8% | remaining activity at 1.25 µM [2, 13]: 97.6%

O=C(O)c1cc([N+](=O)[O-])ccc1NCCCc1ccccc1 [5-Nitro-2-(3-phenylpropylamino)benzoic acid]
remaining activity at 3.75 µM [1, 14]: 99.3% | remaining activity at 1.25 µM [2, 14]: 99.5%

Cc1cnc(C(=O)NCCc2ccc(S(=O)(=O)NC(=O)NC3CCCCC3)cc2)cn1 [Glipizide]
remaining activity at 3.75 µM [1, 15]: 94.3% | remaining activity at 3.75 µM [1, 16]: 93% | remaining activity at 1.25 µM [2, 15]: 91.5% | remaining activity at 1.25 µM [2, 16]: 96.2%

O=C1/C(=C/c2ccc([N+](=O)[O-])cc2)CS(=O)(=O)C/C1=C\c1ccc([N+](=O)[O-])cc1 [Ubiquitin Isopeptidase Inhibitor I, G5]
remaining activity at 3.75 µM [1, 17]: 95.7% | remaining activity at 1.25 µM [2, 17]: 93.2%

CC(C)C[C@H]1C(=O)O[C@H](Cc2ccc(N3CCOCC3)cc2)C(=O)N(C)[C@@H](CC(C)C)C(=O)O[C@H](C)C(=O)N(C)[C@@H](CC(C)C)C(=O)O[C@H](Cc2ccc(N3CCOCC3)cc2)C(=O)N(C)[C@@H](CC(C)C)C(=O)O[C@H](C)C(=O)N1C [Emodepside]
remaining activity at 3.75 µM [1, 18]: 100% | remaining activity at 1.25 µM [2, 18]: 100%

O=C(O)c1cc(/N=N/c2ccc(O)c(C(=O)O)c2)ccc1O [Olsalazine Sodium]
remaining activity at 3.75 µM [1, 19]: 97.9% | remaining activity at 1.25 µM [2, 19]: 101%

N=C(N)Nc1ccc(C(=O)Oc2ccc3cc(C(=N)N)ccc3c2)cc1 [Nafamostat mesylate]
remaining activity at 3.75 µM [1, 20]: 104% | remaining activity at 1.25 µM [2, 20]: 104%

CCCC(=O)NCCc1csc(-c2ccc(Cl)cc2)n1 [Azoramide]
remaining activity at 3.75 µM [1, 21]: 99.7% | remaining activity at 1.25 µM [2, 21]: 98.4%

O=C1OC(/C=C/c2ccccc2)=NC/1=C/c1cccnc1 [TC-DAPK 6]
remaining activity at 3.75 µM [1, 22]: 90.3% | remaining activity at 1.25 µM [2, 22]: 96.1%

CCCC/C=C/CCCCCCCCC(=O)O [10(E)-Pentadecenoic acid]
remaining activity at 3.75 µM [1, 23]: 89.6% | remaining activity at 1.25 µM [2, 23]: 97.7%

CC(=O)C1=C(O)[C@@H]2[C@H]3c4c[nH]c5cccc(c45)C[C@H]3C(C)(C)N2C1=O [Cyclopiazonic acid]
remaining activity at 3.75 µM [1, 24]: 104% | remaining activity at 1.25 µM [2, 24]: 102%

NC(=O)C[C@H](N)C(=O)O [L-Asparagine]
remaining activity at 3.75 µM [1, 25]: 108% | remaining activity at 1.25 µM [2, 25]: 106%

Cc1ccc(S(=O)(=O)NC(=O)NN2CCCCCC2)cc1 [Tolazamide]
remaining activity at 3.75 µM [1, 26]: 94.7% | remaining activity at 3.75 µM [1, 27]: 93.8% | remaining activity at 1.25 µM [2, 26]: 93.9% | remaining activity at 1.25 µM [2, 27]: 100%

COc1ccc(-c2cc(=O)c3c(O)cc(O)cc3o2)cc1 [Acacetine]
remaining activity at 3.75 µM [1, 28]: 92.9% | remaining activity at 1.25 µM [2, 28]: 94.2%

COc1cc([C@@H]2c3cc4c(cc3[C@H](O)[C@H]3COC(=O)[C@@H]23)OCO4)cc(OC)c1OC [Picropodophyllin]
remaining activity at 3.75 µM [1, 29]: 98.4% | remaining activity at 1.25 µM [2, 29]: 95.7%

CCCCOc1ccc(C(=O)CCN2CCCCC2)cc1 [Dyclonine HCl]
remaining activity at 3.75 µM [1, 30]: 101% | remaining activity at 1.25 µM [2, 30]: 103%

Clc1ccc(Cn2c(CN3CCCC3)nc3ccccc32)cc1 [Clemizole (hydrochloride)]
remaining activity at 3.75 µM [1, 31]: 93.2% | remaining activity at 1.25 µM [2, 31]: 93.9%

CCN(CC)C(=O)c1ccc(O)c(OC)c1 [Vanillic acid diethylamide]
remaining activity at 3.75 µM [1, 32]: 102% | remaining activity at 1.25 µM [2, 32]: 97.3%

O=C(O)c1cc(O)c2ccc(Cl)cc2n1 [7-Chlorokynurenic acid]
remaining activity at 3.75 µM [1, 33]: 103% | remaining activity at 1.25 µM [2, 33]: 104%

C[C@H](O)[C@H](O)c1cnc2nc(N)[nH]c(=O)c2n1 [6-Biopterin]
remaining activity at 3.75 µM [1, 34]: 95.8% | remaining activity at 1.25 µM [2, 34]: 99.6%

Cc1cc(C)nc(NC(=S)N2CCN(Cc3ccc(C(F)(F)F)cc3)CC2)c1 [NCT-503]
remaining activity at 3.75 µM [1, 35]: 93.8% | remaining activity at 1.25 µM [2, 35]: 96.7%

CCc1c(O)cc(O)c(C(=O)c2ccc(OCCN3CCOCC3)c(OC)c2)c1CC(=O)N(CCOC)CCOC [KW-2478]
remaining activity at 3.75 µM [1, 36]: 94.5% | remaining activity at 1.25 µM [2, 36]: 93.8%

C[C@H](CCC(=O)O)[C@H]1CC[C@H]2[C@@H]3CC[C@@H]4C[C@H](O)CC[C@]4(C)[C@H]3CC[C@]12C [Lithocholic acid]
remaining activity at 3.75 µM [1, 37]: 93.6% | remaining activity at 3.75 µM [1, 38]: 89.6% | remaining activity at 1.25 µM [2, 37]: 95.7% | remaining activity at 1.25 µM [2, 38]: 97.4%

O=C(Nc1c(Cl)cncc1Cl)c1ccc(OC(F)F)c(OCC2CC2)c1 [Roflumilast]
remaining activity at 3.75 µM [1, 39]: 94.8% | remaining activity at 1.25 µM [2, 39]: 94.1%

Source: paper PMC8286840, “Identifying SARS-CoV-2 antiviral compounds by screening for small molecule inhibitors of Nsp3 papain-like protease” (Biochemical Journal, 2021)
